biological target: T1, cholesteryl ester transfer protein (CETP) (Homo sapiens, UniProt P11597); assay: CETP activity SPA assay in the presence of plasma (human lipoprotein-deprived serum as source of CETP); type: biochemical; conditions: source of CETP was human lipoprotein-deprived serum (LPDS), transfer of radiolabeled cholesteryl ester from HDL donor to biotin-labeled LDL acceptor particles
T1 construct: the source of CETP was human lipoprotein-deprived serum (LPDS); from tissue; host or cells: human lipoprotein-deprived serum (LPDS)
T1 sequence (P11597 18-493): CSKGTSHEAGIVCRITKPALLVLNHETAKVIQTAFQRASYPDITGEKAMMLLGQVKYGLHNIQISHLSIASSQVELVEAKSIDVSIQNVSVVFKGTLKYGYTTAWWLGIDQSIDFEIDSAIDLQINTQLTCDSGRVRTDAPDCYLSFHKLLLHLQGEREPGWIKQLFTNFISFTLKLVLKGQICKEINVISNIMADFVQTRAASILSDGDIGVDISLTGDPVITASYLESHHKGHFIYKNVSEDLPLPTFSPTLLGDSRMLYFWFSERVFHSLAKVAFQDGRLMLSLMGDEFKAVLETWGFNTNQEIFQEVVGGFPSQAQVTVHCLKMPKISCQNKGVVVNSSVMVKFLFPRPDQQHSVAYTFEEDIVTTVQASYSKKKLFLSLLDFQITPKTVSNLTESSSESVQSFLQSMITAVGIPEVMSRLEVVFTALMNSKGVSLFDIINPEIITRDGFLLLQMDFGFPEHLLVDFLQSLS
Experimental: Activity of CETP inhibitors was determined using a buffer assay system. Partially purified CETP transferred radiolabeled cholesteryl ester from HDL donor particles to biotin-labeled LDL acceptor particles. The reaction was stopped by addition of streptavidin-coupled scintillation proximity assay (SPA) beads. These beads captured the biotinylated acceptor particles and transferred radioactivity was measured. The assay system was purchased and performed according to manufacturer's recommendations (Amersham Biosciences). Inhibitory activity of compounds was determined as percentage of positive control activity containing CETP together with donor and acceptor particles. Serial dilution of compounds was performed in order to determine the IC50 values.
Activity of the compounds was subsequently measured in the presence of plasma using the same assay as described above except that the source of CETP was human lipoprotein-deprived serum (LPDS). Inhibitory activity of compounds was determined as percentage of positive control activity containing all the assay components except compound. Serial dilution of compounds was performed in order to determine the IC50 values.

`Cc1cc2cc[nH]c2c(C(=O)N(CCc2ccc(Cl)c(Cl)c2)Cc2ccc(C(C)(C)C)cc2)n1` [Compound 3.14, 5-methyl-1H-pyrrolo[2,3-c]pyridine-7-carboxylic acid (4-tert-butyl-benzyl)-[2-(3,4-dichloro-phenyl)-ethyl]-amide] and `CC(C)(C)c1ccc(CN(CCc2cccc(C(F)(F)F)c2)C(=O)c2nc(Cl)cc3cc[nH]c23)cc1` [Compound 3.22, 5-chloro-1H-pyrrolo[2,3-c]pyridine-7-carboxylic acid (4-tert-butyl-benzyl)-[2-(3-trifluoromethyl-phenyl)-ethyl]-amide] are within 1.5-fold of each other in IC50: 141 nM for the first, 175 nM for the second.

`CC(C)(C)c1ccc(CN(CCc2ccc(F)cc2)C(=O)c2ncc(F)c3cc[nH]c23)cc1` [Compound 3.15, 4-fluoro-1H-pyrrolo[2,3-c]pyridine-7-carboxylic acid (4-tert-butyl-benzyl)-[2-(4-fluoro-phenyl)-ethyl]-amide] gave an IC50 of 437 nM.
